Values quoted from earlier work, collected in US20150306111A1 (priority 2012, published 2015).
“Also recorded” adds a separate entry of the source. Read-outs that look alike come from different tables or passages of the source.

What was measured:
[1] = test system: asthma patients with seasonal allergic rhinitis and nasal congestion; settings: daily dose of 5 mg, 331 patients

Clc1ccc2c(c1)CCc1cccnc1C2=C1CCNCC1 [desloratadine]
Solubility in ethyl alcohol (ethyl alcohol): very soluble in ethyl alcohol | Solubility in propylene glycol (propylene glycol): moderately soluble in propylene glycol | Solubility in water: practically insoluble in water; also recorded: low solubility in water | Solubility in water (listed as Desloratadine): poorly soluble in water | Effect on symptoms compared with placebo [1]: effective in reducing overall symptoms, the symptoms of asthma and the symptoms of nasal congestion
